Measurements from ChEMBL document CHEMBL1142640, “New natural product isolation and comparison of the secondary metabolite content of three distinct samples of the sea hare Aplysia dactylomela from tenerife” (J Nat Prod, 2000).
Converted amounts (≈) assume the structure as drawn. The source made the active and inactive calls. No cut-off for these calls is given here.

Tests used:
[Chlorella] fusca [1] = Antialgal activity against Chlorella fusca at 50 ug/disk; format: functional; details: Scenedesmus fuscus
Mycotypha microspora [2] = assay: Antifungal activity against Mycotypha microspora at 50 ug/disk; format: functional
Microbotryum violaceum [3] = assay: Antifungal activity against Microbotryum violaceae at 50 ug/disk; format: functional
Fusarium oxysporum [4] = assay: Antifungal activity against Fusarium oxysporum at 50 ug/disk; format: functional
Priestia megaterium [5] = assay: Antibacterial activity against Bacillus megaterium at 50 ug/disk; format: functional
Artemia salina = assay: (§1) Toxicity in Artemia salina at 0.5 mg/mL after 48 hrs; format: organism-based; details: in vivo, 48 h
Escherichia coli = assay: Antibacterial activity against Escherichia coli at 50 ug/disk; format: functional
[6] = tested on: Aspergillus pseudoglaucus; assay: Antifungal activity against Eurotium repens at 50 ug/disk; format: functional
[Chlorella] fusca [7] = Antialgal activity against Chlorella fusca assessed as few colonies of test organism growing within inhibition zone at 50 ug/disk; format: functional; details: Scenedesmus fuscus; read-out: IZ
ZR-75-1 = assay: Cytotoxicity against human ZR-75-1 cells; format: functional, cell-based
KB = assay: Cytotoxicity against human KB cells; format: functional, cell-based
[8] = as §1; format: organism-based; details: in vivo, read-out: Activity
Lu1 = assay: Cytotoxicity against human Lu1 cells; format: functional, cell-based
[9] = tested on: Aspergillus pseudoglaucus; assay: Antifungal activity against Eurotium repens assessed as few colonies of test organism growing within inhibition zone at 50 ug/disk; format: functional; details: read-out: IZ
P388 = assay: Cytotoxicity against mouse P388 cells; format: functional, cell-based
Microbotryum violaceum [10] = assay: Antifungal activity against Microbotryum violaceae assessed as no colonies of test organism growing within inhibition zone at 50 ug/disk; format: functional; details: read-out: IZ
Trypanosoma cruzi = assay: Antitrypanosomal activity against Trypanosoma cruzi; format: functional, organism-based
[11] = Cytotoxicity against human HMO2 cells; format: functional, cell-based
Fusarium oxysporum [12] = assay: Antifungal activity against Fusarium oxysporum assessed as few colonies of test organism growing within inhibition zone at 50 ug/disk; format: functional; details: read-out: IZ
Priestia megaterium [13] = assay: Antibacterial activity against Bacillus megaterium assessed as no colonies of test organism growing within inhibition zone at 50 ug/disk; format: functional; details: read-out: IZ
[14] = target: Human immunodeficiency virus type 1 reverse transcriptase (Human immunodeficiency virus 1) (UniProt Q72547); assay: Inhibition of HIV1 reverse transcriptase
MCF7 = assay: Cytotoxicity against human MCF7 cells; format: functional, cell-based
A549 = assay: Cytotoxicity against human A549 cells; format: functional, cell-based
[15] = Cytotoxicity against rat L6 cells; format: cell-based; details: read-out: MIC
[16] = target: Tyrosine-protein kinase Lck (Homo sapiens) (UniProt P06239); assay: Inhibition of p56lck
Sequence of Tyrosine-protein kinase Lck (Homo sapiens) (P06239 2-509 limits assumed): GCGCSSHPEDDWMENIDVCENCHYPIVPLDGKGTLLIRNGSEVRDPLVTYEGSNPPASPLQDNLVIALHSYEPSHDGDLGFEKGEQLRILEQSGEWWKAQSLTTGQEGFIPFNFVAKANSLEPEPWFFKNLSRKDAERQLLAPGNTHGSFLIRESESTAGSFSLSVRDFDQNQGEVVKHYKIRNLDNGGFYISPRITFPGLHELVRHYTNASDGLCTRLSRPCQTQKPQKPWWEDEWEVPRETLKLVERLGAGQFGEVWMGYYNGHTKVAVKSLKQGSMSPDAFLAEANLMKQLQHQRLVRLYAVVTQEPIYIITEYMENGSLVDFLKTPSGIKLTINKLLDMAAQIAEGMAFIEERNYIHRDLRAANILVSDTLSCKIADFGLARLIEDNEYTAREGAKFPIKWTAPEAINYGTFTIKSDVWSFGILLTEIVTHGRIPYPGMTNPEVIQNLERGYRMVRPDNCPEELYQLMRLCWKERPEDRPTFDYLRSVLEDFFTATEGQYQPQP

[17] = Toxicity in Artemia salina at 0.5 mg/mL after 24 hrs; format: organism-based; details: in vivo, read-out: Activity
Mycotypha microspora [18] = assay: Antifungal activity against Mycotypha microspora assessed as few colonies of test organism growing within inhibition zone at 50 ug/disk; format: functional; details: read-out: IZ
HT-29 = assay: Cytotoxicity against human HT29 cells; format: functional, cell-based
Caenorhabditis elegans = assay: Nematicidal activity against Caenorhabditis elegans; format: functional, organism-based
[19] = Cytotoxicity against human MEL28 cells; format: functional, cell-based; details: SK-MEL-28
HepG2 = assay: Cytotoxicity against human HepG2 cells; format: functional, cell-based
HeLa = assay: Cytotoxicity against human HeLa cells; format: functional, cell-based
Mycotypha microspora [20] = assay: Antifungal activity against Mycotypha microspora assessed as no colonies of test organism growing within inhibition zone at 50 ug/disk; format: functional; details: read-out: IZ
Microbotryum violaceum [21] = assay: Antifungal activity against Microbotryum violaceae assessed as few colonies of test organism growing within inhibition zone at 50 ug/disk; format: functional; details: read-out: IZ
[22] = Antibacterial activity against Escherichia coli assessed as few colonies of test organism growing within inhibition zone at 50 ug/disk; details: read-out: IZ
[Chlorella] fusca [23] = Antialgal activity against Chlorella fusca assessed as no colonies of test organism growing within inhibition zone at 50 ug/disk; format: functional; details: Scenedesmus fuscus; read-out: IZ

CCOC(=O)c1ccccc1C(=O)OCC [DIETHYL PHTHALATE]
zone of inhibition at 50 µg/disc ([Chlorella] fusca [1]; read-out: IZ): 13 mm

CC(=O)O[C@@H]1C[C@@H](Br)C(C)(C)O[C@]1(C)[C@H]1CC[C@](C)(Cl)[C@@H](Br)C1
Activity (Mycotypha microspora [2]): inactive | Activity ([Chlorella] fusca [1]): inactive | Activity (Microbotryum violaceum [3]): inactive | Activity (Fusarium oxysporum [4]): inactive | Activity (Priestia megaterium [5]): inactive | Activity (Artemia salina): Not Active | Activity (Escherichia coli): inactive | Activity [6]: inactive

CC1(C)O[C@](C)([C@H]2CC[C@](C)(Cl)[C@@H](Br)C2)CC[C@H]1Br [CAESPITANE]
zone of inhibition at 50 µg/disc ([Chlorella] fusca [7]): 1 mm | IC50 (ZR-75-1): > 25 µg/mL | Activity (Microbotryum violaceum [3]): inactive | Activity (Fusarium oxysporum [4]): inactive | Activity (Priestia megaterium [5]): inactive | IC50 (KB): > 25 µg/mL | mortality at 48 h, 0.5 mg/mL [8]: 40% | Activity (Escherichia coli): inactive | Activity [6]: inactive | IC50 (Lu1): > 25 µg/mL

C=C1C[C@H](OC(C)=O)[C@H](Br)C(C)(C)[C@@]12CC[C@](C)(Br)[C@@H](Cl)C2
IC50 (ZR-75-1): > 25 µg/mL | Activity ([Chlorella] fusca [1]): inactive | zone of inhibition at 50 µg/disc [9]: 1 mm | Activity (Priestia megaterium [5]): inactive | IC50 (KB): > 25 µg/mL | Activity (Artemia salina): Not Active | Activity (Escherichia coli): inactive | IC50 (Lu1): > 25 µg/mL

C=C1C[C@H](O)[C@H](Br)C(C)(C)[C@@]12CCC(C)=C(Cl)C2 [ELATOL]
IC50 (P388): 1 µg/mL (≈ 3 µM) | IC50 (ZR-75-1): > 25 µg/mL | zone of inhibition at 50 µg/disc (Microbotryum violaceum [10]): 3 mm | IC50 (Trypanosoma cruzi): 0.92 µg/mL (≈ 2.76 µM) | IC50 [11]: < 1 µg/mL | zone of inhibition at 50 µg/disc (Fusarium oxysporum [12]): 7 mm | zone of inhibition at 50 µg/disc (Priestia megaterium [13]): 2 mm | Activity [14]: inactive | Activity ([Chlorella] fusca [1]): inactive | IC50 (MCF7): < 1 µg/mL | zone of inhibition at 50 µg/disc [9]: 25 mm | IC50 (A549): 0.1 µg/mL (≈ 0.3 µM) | IC50 (KB): > 25 µg/mL | MCC [15]: 3.3 µg/mL | Activity [16]: inactive | mortality at 24 h, 0.5 mg/mL [17]: 100% | zone of inhibition at 50 µg/disc (Mycotypha microspora [18]): 25 mm | IC50 (HT-29): 0.1 µg/mL (≈ 0.3 µM) | IC50 (Lu1): > 25 µg/mL | Activity (Caenorhabditis elegans): Active | IC50 [19]: 0.1 µg/mL (≈ 0.3 µM) | IC50 (HepG2): < 1 µg/mL

C=C1C[C@@H](O)[C@@H](Br)C(C)(C)[C@]12CC[C@@](C)(Br)[C@H](Cl)C2 [OBTUSOL]
zone of inhibition at 50 µg/disc ([Chlorella] fusca [7]): 3 mm | IC50 (ZR-75-1): > 25 µg/mL | IC50 (HeLa): 50 µg/mL (≈ 121 µM) | IC50 [11]: 7 µg/mL (≈ 16.9 µM) | Activity [14]: inactive | IC50 (MCF7): 1.5 µg/mL (≈ 3.62 µM) | Activity (Priestia megaterium [5]): inactive | IC50 (KB): > 25 µg/mL | mortality at 48 h, 0.5 mg/mL [8]: 80% | Activity (Escherichia coli): inactive | Activity [16]: inactive | zone of inhibition at 50 µg/disc (Mycotypha microspora [20]): 6 mm | IC50 (Lu1): > 25 µg/mL | Activity (Caenorhabditis elegans): Active | IC50 (HepG2): < 1 µg/mL

CC1(C)C=CC(=O)[C@@](C)([C@H]2CC[C@](C)(Cl)[C@@H](Br)C2)O1 [CAESSPITENONE]
Activity (Mycotypha microspora [2]): inactive | Activity ([Chlorella] fusca [1]): inactive | Activity (Microbotryum violaceum [3]): inactive | Activity (Fusarium oxysporum [4]): inactive | Activity (Priestia megaterium [5]): inactive | Activity (Artemia salina): Not Active | Activity (Escherichia coli): inactive | Activity [6]: inactive

CC(=O)O[C@@H](C=C(C)C)C/C(C)=C1\CC[C@](C)(Br)[C@@H](Cl)C1
IC50 (ZR-75-1): > 25 µg/mL | Activity ([Chlorella] fusca [1]): inactive | zone of inhibition at 50 µg/disc (Microbotryum violaceum [21]): 1 mm | zone of inhibition at 50 µg/disc [9]: 2 mm | Activity (Priestia megaterium [5]): inactive | IC50 (KB): > 25 µg/mL | Activity (Artemia salina): Not Active | Activity (Escherichia coli): inactive | IC50 (Lu1): > 25 µg/mL

C[C@](Cl)(/C=C/Br)[C@@H](Cl)/C=C/C(=C\Cl)C(Cl)Cl
IC50 (ZR-75-1): > 25 µg/mL | IC50 [11]: 1.1 µg/mL (≈ 2.84 µM) | IC50 (MCF7): 1.5 µg/mL (≈ 3.87 µM) | Activity (Microbotryum violaceum [3]): inactive | Activity (Fusarium oxysporum [4]): inactive | IC50 (KB): > 25 µg/mL | Activity (Artemia salina): Not Active | Activity [6]: inactive | zone of inhibition at 50 µg/disc [22]: 2 mm | IC50 (Lu1): > 25 µg/mL | IC50 (HepG2): 1 µg/mL (≈ 2.58 µM) | zone of inhibition at 50 µg/disc ([Chlorella] fusca [23]): 1 mm

CC1=C([C@H]2CC[C@](C)(Cl)[C@@H](Br)C2)C[C@@H](Br)C(C)(C)O1 [LAUCAPYRANOID A]
Activity (Mycotypha microspora [2]): inactive | Activity ([Chlorella] fusca [1]): inactive | Activity (Microbotryum violaceum [3]): inactive | Activity (Fusarium oxysporum [4]): inactive | Activity (Priestia megaterium [5]): inactive | Activity (Artemia salina): Not Active | Activity (Escherichia coli): inactive | Activity [6]: inactive
